In US5128345A, “Carcinostatic composition comprising indolquinolines” (Mect Corporation, priority 1988, dated 1992):

Assays:
KB cells = assay: Test for inhibiting multiplication/growth of KB cells (in vitro); assay type: cell-based, Human; conditions: compound added Day 1, cells counted Day 4, 37° C., 5% CO2, 50% inhibition rate, 4320 min
Procedure: 1) Function for Inhibiting Multiplication of KB-1 Cell (in vitro test)
KB cells, carcinomatous cell tumors, were transferred to in vitro floatation incubator systems, and added respectively with the Compounds (1), (2) and (3). The results of cultivation added with the Compounds (1), (2) and (3) were compared with the result of the control which was not added with any compound.
Cell used: KB Cell (Originating from Human Mouth Epidermal Cancer),
Culture medium: Eagles Minimal Essential Medium supplemented with 10% Calf Serum,
Cultivation: 37° C. Carbon dioxide Gas incubator (5% CO2).
KB cells were diluted in the culture medium to adjust the KB cell density to 2 x 10^4 /ml.
Three ml of the cell suspension was inoculated in each of 60 mm plastic dishes.
Two dishes per standard dosage were used.
Test compound was added to the medium so that the final concentrations were set to 100, 30, 10, 3 and 1 μg/ml.
Cells were scraped off from the dish using trypsin, and the cell number was countered using a Corter counter.
In general accordance with the stipulations set forth by the National Cancer Institute (NCI), U.S.A., the concentration of compound necessary for exerting 50% growth inhibition (ED50) compared to the control was determined.

P-388 = assay: Prolongation of life span in P-388 cancer implanted mouse (in vivo); set-up: species or system CDF Mouse; conditions: Day 1 and Day 5, P-388 inoculated i.p., 10^6 cells/mouse
Procedure: Effect on Prolongation of Life Span in Cancer implanted Mouse and Acute Toxicity
Pharmacological effects of the compounds as used in Test Example 1 were tested in vivo using P-388 implanted mice.
Animal Used: CDF Mouse (6 mice/group),
Number of Inowlated Cells: 10^6 cells/mouse,
Day of Administration: Day 1 and Day 5,
Dosage: LD50 or 400 mg/kg/day at the maximum.
The treatment was judged as effective when the ratio of survival of the treated group to that of the control group (T/C %) was 120% or more. The survival period of the control group was generally about 10 days.

[1] = J. Med. Chem., vol. 17, 922 (1974); among acridines with the 9-position alkylamino group replaced; cited from earlier work

Row | SMILES | ED50: concentration of compound necessary for exerting 50% growth inhibition compared to the control (Concentration at Inhibition Rate 50%) (KB cells) [µg/mL] | Ratio of Life Prolongation (T/C %) (P-388; 100 mg/kg) [%] | Ratio of Life Prolongation (T/C %) (P-388; 200 mg/kg) [%] | also measured
1 | COc1cc(NS(C)(=O)=O)ccc1Nc1c2ccccc2nc2c1[nH]c1ccccc12 [Compound 1] | 0.3 |  |  | Ratio of Life Prolongation (T/C %) (P-388; 6.25 mg/kg): 300%; Ratio of Life Prolongation (T/C %) (P-388; 12.5 mg/kg): 203%; Ratio of Life Prolongation (T/C %) (P-388; 25 mg/kg): 111%
2 | COc1cc(NS(C)(=O)=O)ccc1Nc1c2ccccc2nc2ccccc12 [Amsacrine, N-(4-(9-acridylamino)-3-methoxyphenyl)methanesulfonamide] |  |  |  | carcinostatic function [1]: highest carcinostatiac function
3 | COc1cc(NS(C)(=O)=O)ccc1Nc1c2ccccc2nc2c1ccc1ccccc12 [Compound 3] |  | 163 | 204 | Ratio of Life Prolongation (T/C %) (P-388; 50 mg/kg): 157%
4 | COc1cc(NS(C)(=O)=O)ccc1Nc1c2ccccc2nc2cc3ccccc3cc12 [Compound 2, N-(4-((benzo(b)acridine-12yl)amino)-3-methoxyphenyl)methanesulfonamide] | 1.15 | 122 | 130 | Ratio of Life Prolongation (T/C %) (P-388; 400 mg/kg): 130%
